US7022681B2, “Partial and full agonists of A1 adenosine receptors” (CV Therapeutics, Inc., priority 2002, dated 2006)

How the values were obtained:
[1] = test system: awake rats; assay: Heart rate in awake rats (telemetry); type: in vivo, rat; settings: dose levels of 1 mg/kg, 2.5 mg/kg, and 5 mg/kg
Experimental: Heart rate was measured from rats chronically instrumented with telemetry transmitters. For transmitter implantation, a midline laparotomy was performed on anesthetized rats and a transmitter for ECG recording was sutured to the abdominal wall. The two electrocardiographic leads were tunneled through the wall, passed subcutaneously (one to the left shoulder, the other to the right thigh), and secured in place with sutures. Heart rates of awake rats were measured using a Dataquest ART Gold System (Data Sciences International, St. Paul, Minn.). Cardiac electrical activity was recorded for 10-s periods and used to calculate heart rate in beats per minute. After recording of a baseline heart rate, either vehicle (0.9% DMSO in saline, 0.5 ml) or a compound of Formula I was injected into the intraperitoneal cavity of each rat, and heart rate was monitored at intervals for an additional 3 hours.
The effects of a compound of Formula I on heart rate and serum NEFA reduction concentration were determined in separate groups of rats to avoid the effects of animal handling and blood sampling on heart rate. Three days before an experiment, a catheter ([…] outer diameter) was implanted in the left common carotid artery of each rat using aseptic conditions and sterile technique. […] Serum NEFA concentration was determined using an enzymatic colorimetric assay kit (Wako Chemicals, Richmond, Va.).

[2] = test system: awake rats; assay: Antilipolytic properties: NEFA concentration in awake rats; type: in vivo, rat; settings: oral administration
Excerpt: • Animals. Male Sprague-Dawley rats (380–420 g) were purchased from Simonsen Laboratories (Gilroy, Calif.). All animals received humane care according to the guidelines set forth in The Principles of Laboratory Animal Care formulated by the National Society for Medical Research and the Guide for the Care and Use of Laboratory Animals prepared by the Institute of Laboratory Animal Resources and published by the National Institute of Health (NIH Publication 86-23, revised 1996). • Isolation of Rat Epididymal Adipocytes. Adipocytes were isolated from the epididymal fat pads of rats as described previously (Rodbell, 1964). Briefly, rats were anesthetized using methoxyfluorane and killed by exsanguination. Epididymal fat tissue was removed and placed into a modified Krebs (KRH) solution containing NaCl (100 mM), KCl (4.7 mM), CaCl2 (2.5 mM), NaHCO3 (3.6 mM), MgSO4 (1.19 mM), KH2PO4 (1.18 mM), dextrose (5 mM), pyruvic acid (5 mM), ascorbic acid (1 mM), and HEPES (5 mM), pH 7.4. Visible blood vessels were dissected and excised, and the adipose tissue was minced. Minced tissue was digested with 25 ml of fresh KRH solution containing type I collagenase (1 mg/ml), fatty-acid free BSA [1% (wt/vol)] and nicotinic acid (2_M, to inhibit lipolysis) for 40 to 60 minutes at 37° C. with continuous gentle shaking. The cell suspension was filtered through a nylon-mesh (210_m) to remove undigested tissue fragments. The cell filtrate was washed three times using KRH solution containing 1% fatty acid-free BSA at 37° C. The final adipocyte suspension was either diluted in fresh KRH solution with 1% fatty acid-free BSA for use in cAMP experiments, or used to prepare membranes for radioligand binding assays. • cAMP Assays in Isolated Rat Adipocytes. Aliquots (100 μl, 45,000–90,000 cells) of the freshly prepared adipocyte cell suspension were placed into wells of 24-well cell culture plates containing 0.4 ml of KRH solution containing fatty acid-free BSA (1%), ascorbic acid (1 mM), rolipram (10 μM), cilostamide (1 μM), adenosine deaminase (2 U/ml), and appropriate A1 adenosine receptor agonist(s). An aliquot of 0.5 ml of KRH solution containing 60 nM isoproterenol was added to each well, and incubations proceeded for 4 min in an orbital shaker bath maintained at 37° C. Assays were terminated by the addition of 200 μl of 300 mM HCl to each well to lyse the cells. The concentration of cAMP in the cell lysate was determined using colorimetric direct cAMP kits (Assay Designs, Inc., Ann Arbor, Mich.). Adipocyte Membrane Preparation and Competition Binding • Assays. Freshly isolated adipocytes were added to a chilled solution containing sucrose (0.25 M), EDTA (1 mM), and Tris-HCl (10 mM, pH 7.4) and homogenized with 10 strokes using a motordriven tissue grinder. The homogenate was cooled on ice and the fat layer was discarded. The homogenate was then centrifuged at 500 g for 10 min at 4° C. The supernatant under the fat layer was removed, resuspended in fresh buffer, and homogenized a second time with six strokes using the tissue grinder. Cell membranes were collected by centrifugation of the homogenate at 15,000 g for 15 min. The final membrane pellet was resuspended in a solution containing sucrose (0.25 M), phenylmethylsulfonyl fluoride (0.1 mM), leupeptin (5 μg/ml), aprotinin ([…]), adenosine deaminase (2 U/ml), and Tris-HCl (10 mM) buffer, pH 7.4. The membrane suspension was frozen and stored in liquid nitrogen. For competition binding assays, membrane suspensions were thawed and incubated for 2 hours at room temperature in Tris-HCl (50 mM) buffer containing ADA (1 U/ml), guanosine 5-(imido)triphosphate ([…]), and [3H]CPX (1–3nM) and progressively higher concentrations of the competing agent. At the end of incubation, free radioligand was separated from membrane-bound radioligand by filtration through GF/C glass fiber filters (Whatman, Maidstone, UK) using a tissue harvester (Brandel, Inc., Gaithersburg, Md.). Radioactivity was quantified by liquid scintillation counting. […]

[3] = target: A1 receptor (Cavia porcellus, UniProt P47745); settings: chronic administration for 7 days, guinea pigs; cited from earlier work
[4] = test system: seizures induced by DMCM; settings: experimental models of epilepsy; cited from earlier work

Sequence of A1 receptor (P47745 whole entry): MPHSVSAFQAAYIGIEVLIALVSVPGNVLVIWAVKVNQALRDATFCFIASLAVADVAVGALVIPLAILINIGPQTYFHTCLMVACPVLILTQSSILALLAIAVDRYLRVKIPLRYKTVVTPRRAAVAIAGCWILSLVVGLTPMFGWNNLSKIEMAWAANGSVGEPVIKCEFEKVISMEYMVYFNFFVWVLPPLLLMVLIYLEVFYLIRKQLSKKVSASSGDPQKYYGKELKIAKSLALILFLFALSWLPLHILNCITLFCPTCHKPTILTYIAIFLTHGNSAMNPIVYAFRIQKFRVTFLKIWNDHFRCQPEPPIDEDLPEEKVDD

O[C@@H]1[C@H](O)[C@@H](C#Cc2ccccc2F)O[C@H]1n1cnc2c(NC3CCCC3)ncnc21 [(4S,2R,3R,5R)-2-[6-(cyclopentylamino)purin-9-yl]-5-{2-[2-fluorophenyl]-ethynyl}oxolane-3,4-diol]
effect on heart rate [1]: no effect on heart rate was observed | initial reduction of non-esterified free fatty acid (NEFA) ([2]; 1 mg/Kg): 40% | time in which plasma levels of NEFA returned to normal ([2]; 1 mg/Kg): 2 h | time the NEFA reduction was maintained ([2]; 1 mg/Kg): 1 h | initial reduction of non-esterified free fatty acid (NEFA) ([2]; 2.5 mg/Kg): 60% | time in which plasma levels of NEFA returned to normal ([2]; 2.5 mg/Kg): 4 h | time the NEFA reduction was maintained ([2]; 2.5 mg/Kg): 1.5 h

C[C@H](Cc1ccccc1)Nc1ncnc2c1ncn2[C@@H]1O[C@H](CO)[C@@H](O)[C@H]1O [R-PIA, R-N6-phenylisopropyladenosine]
desensitization in terms of the dromotropic response [3]: desensitization of the A1 receptor

Cc1ccccc1CNc1ncnc2c1ncn2[C@@H]1O[C@H](CO)[C@@H](O)[C@H]1O [metrifudil]
anticonvulsant activity against seizures induced by DMCM [4]: potent anticonvulsant
